Laboratory results taken from patent publication US12606552B2, “Bifunctional compound, preparation method therefor, and use thereof” (SUZHOU KINTOR PHARMACEUTICALS, INC., priority 2020, dated 2026).

Tests used:
[1] = Pharmacokinetic studies of compounds in mice; type: in vivo; conditions: male mice, intragastric administration 10 mg/kg, plasma
Procedure: Activity Assay Example 3: Pharmacokinetic Studies of Compounds in Mice
In this test, 3 male mice were selected and divided into 1 group, 3 mice/group. All animals were fasted overnight before administration.
The intragastric administration dose was 10 mg/kg, and the administration volume was 10 mL/kg.
2.2 Preparation of Drug Solution
According to the animal body weight combined with the administration dose, the amount of the required drug solution was calculated. An appropriate amount of the test substance was weighed, added with 5% of the final volume of ethanol for dissolution, then added with 5% of the final volume of SolutolHS15, and finally added with PBS to the final volume, and mixed by vortex and fully dissolved to obtain a solution for intragastric administration (1 mg/mL). All solutions were prepared for immediate use.
2.3 Method of Administration
Before administration, the drug solution was placed on a magnetic stirrer in the animal laboratory and stirred for at least 10 min. During the administration process, vortex was continued to ensure uniformity of the drug solution. The theoretical volume of gavage administration was 10 mL/kg, which was administered with a syringe equipped with a gavage needle.
Before administration, the animals were weighed and the body weight of the animals involved in the experiment was recorded, and the administration volume of each animal was calculated according to the body weight. After administration, animals were promptly transferred back to the experimental cages to collect samples.
2.4 Observation of Animal Status
After administration, whether animals had abnormal reactions was observed immediately. If there were no abnormal reactions, animals were observed twice a day during the experiment. If abnormal reactions were found, they should be recorded in time, and the number of observations should be increased until the animals returned to normal or to the end of the experiment.
2.5 Sample Collection and Preservation
All experimental animals were fasted overnight before administration, and blood was collected at corresponding time points into blood collection tubes containing heparin sodium anticoagulant. After the whole blood was collected, the blood collection tube was gently shaken and placed on ice immediately, and then centrifuged (4° C., 4000 rpm, 10 min) to collect supernatant plasma samples, which were stored in a refrigerator at −80° C. before analysis.
2.6 Plasma Sample Processing and Analysis
The collected plasma samples were handed over to the Pharmacokinetic department for sample extraction, and the test substances in the plasma were extracted by protein precipitation method using organic reagents containing internal standards (acetonitrile:plasma=4:1, v/v). The extracted processed samples were submitted for quantitative concentration analysis by LC-MS/MS. According to the plasma concentration of each animal obtained by the analysis, software Kinetica (version 5.0) was used to calculate the main pharmacokinetic parameter eAUC30-120 according to the non-compartment model to evaluate the exposure amount; the test results are shown in Table 2: […]

AR = target: T1, AR (Homo sapiens, UniProt P10275, T878A); test: Effects of compounds on AR expression in LNCaP cells (ELISA, DC50); type: cell-based; parameters: Measurement of the Effects of Drugs on the Expression of AR in Cells by ELISA Method; endogenous in cells; host or cells: LNCaP; conditions: 24 hours of drug treatment, AR by ELISA
T1 sequence (P10275 1-920 T878A): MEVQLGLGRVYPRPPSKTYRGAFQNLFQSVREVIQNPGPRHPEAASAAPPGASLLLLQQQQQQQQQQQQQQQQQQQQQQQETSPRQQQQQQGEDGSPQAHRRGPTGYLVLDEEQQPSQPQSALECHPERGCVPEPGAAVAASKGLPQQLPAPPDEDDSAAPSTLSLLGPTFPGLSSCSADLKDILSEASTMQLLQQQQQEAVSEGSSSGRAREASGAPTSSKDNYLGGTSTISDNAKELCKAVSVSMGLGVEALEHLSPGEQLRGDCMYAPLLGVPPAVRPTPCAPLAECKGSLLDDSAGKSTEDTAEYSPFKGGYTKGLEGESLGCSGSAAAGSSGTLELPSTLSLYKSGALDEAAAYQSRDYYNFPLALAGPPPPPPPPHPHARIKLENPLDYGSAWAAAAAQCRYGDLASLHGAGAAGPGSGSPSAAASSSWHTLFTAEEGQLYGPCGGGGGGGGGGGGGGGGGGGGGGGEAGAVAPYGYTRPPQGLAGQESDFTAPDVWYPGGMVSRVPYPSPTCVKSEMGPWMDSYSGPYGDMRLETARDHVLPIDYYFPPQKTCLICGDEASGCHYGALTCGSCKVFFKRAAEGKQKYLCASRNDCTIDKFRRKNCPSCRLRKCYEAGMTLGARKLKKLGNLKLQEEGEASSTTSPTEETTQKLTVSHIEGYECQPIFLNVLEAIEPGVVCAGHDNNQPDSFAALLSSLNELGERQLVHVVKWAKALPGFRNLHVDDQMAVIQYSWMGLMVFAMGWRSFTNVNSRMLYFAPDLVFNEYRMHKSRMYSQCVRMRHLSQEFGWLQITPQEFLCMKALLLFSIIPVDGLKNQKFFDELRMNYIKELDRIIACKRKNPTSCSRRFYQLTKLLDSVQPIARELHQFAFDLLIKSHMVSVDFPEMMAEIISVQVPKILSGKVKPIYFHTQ
Procedure, shortened: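 LNCaP cells at about 15,000/well were treated for 24 h with compound at 0.0001–2 μmol/L final. AR in cell lysates was measured by ELISA (OD450). Inhibition was relative to DMSO control after blank subtraction, and DC50 was calculated from it.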

For `CC1(C)C(=O)N(c2ccc(C#N)c(C(F)(F)F)c2F)C(=S)N1c1ccc(-c2ccc(OCCNC(=O)COc3cccc4c3C(=O)N(C3CCC(=O)NC3=O)C4=O)c(F)c2)nc1` (stereo not drawn) [Compound A35], the “eAUC0.5-2 h” value [1] was 71 ± 51 ng·h/mL and the DC50 (AR) was 117 nM.

For `CC1(C)C(=O)N(c2ccc(C#N)c(C(F)(F)F)c2F)C(=S)N1c1ccc(-c2ccc(OCCNC(=O)COc3cccc4c3C(=O)N(C3CCC(=O)NC3=O)C4=O)c(C#N)c2)nc1` (stereo not drawn) [Compound A36], the “eAUC0.5-2 h” value [1] was 29 ± 12 ng·h/mL and the DC50 (AR) was 93 nM.

For `CC1(C)C(=O)N(c2ccc(C#N)c(C(F)(F)F)c2F)C(=S)N1c1ccc(-c2ccc(OC3CCN(C(=O)COc4cccc5c4C(=O)N(C4CCC(=O)NC4=O)C5=O)CC3)cc2)nc1` (stereo not drawn) [Compound A37], the “eAUC0.5-2 h” value [1] was 98 ± 48 ng·h/mL and the DC50 (AR) was 18.6 nM.

In the case of `Cc1ncsc1-c1ccc(CNC(=O)[C@@H]2C[C@@H](O)CN2C(=O)[C@@H](NC(=O)COCCCCOc2ccc(-c3ccc(N4C(=S)N(c5ccc(C#N)c(C(F)(F)F)c5F)C(=O)C4(C)C)cn3)cc2F)C(C)(C)C)cc1` [Compound A55], the “eAUC0.5-2 h” value [1] is reported as 396 ± 79 ng·h/mL and the DC50 (AR) is reported as 38.8 nM.

For `Cc1ncsc1-c1ccc(CNC(=O)[C@@H]2C[C@@H](O)CN2C(=O)[C@@H](NC(=O)COCCCCOc2ccc(-c3ccc(N4C(=S)N(c5ccc(C#N)c(C(F)(F)F)c5F)C(=O)C4(C)C)cn3)cc2C#N)C(C)(C)C)cc1` [Compound A57], the “eAUC0.5-2 h” value [1] was 182 ± 84 ng·h/mL and the DC50 (AR) was 31.8 nM.

For `Cc1ncsc1-c1ccc(CNC(=O)[C@@H]2C[C@@H](O)CN2C(=O)[C@@H](NC(=O)COCCCCOc2ccc(-c3ncc(N4C(=S)N(c5ccc(C#N)c(C(F)(F)F)c5F)C(=O)C4(C)C)cc3C(F)(F)F)cc2)C(C)(C)C)cc1` [Compound A62], the “eAUC0.5-2 h” value [1] was 498 ± 124 ng·h/mL and the DC50 (AR) was 80 nM.

In the case of `Cc1ncsc1-c1ccc(CNC(=O)[C@@H]2C[C@@H](O)CN2C(=O)[C@@H](NC(=O)COCCCCOc2ccc(-c3ncc(N4C(=S)N(c5ccc(C#N)c(C(F)(F)F)c5F)C(=O)C4(C)C)cc3F)cc2)C(C)(C)C)cc1` [Compound A63], the “eAUC0.5-2 h” value [1] is reported as 373 ± 242 ng·h/mL and the DC50 (AR) is reported as 37.9 nM.

With `Cc1ncsc1-c1ccc(CNC(=O)[C@@H]2C[C@@H](O)CN2C(=O)[C@@H](N(C)C(=O)COCCCCOc2ccc(-c3ccc(N4C(=S)N(c5ccc(C#N)c(C(F)(F)F)c5F)C(=O)C4(C)C)cn3)cc2)C(C)(C)C)cc1` [Compound A66] the “eAUC0.5-2 h” value [1] was 525 ± 106 ng·h/mL and the DC50 (AR) was 213 nM.

With `Cc1ncsc1-c1ccc(CNC(=O)[C@@H]2C[C@@H](O)CN2C(=O)[C@@H](NC(=O)COCCCCOc2ccc(-c3ncc(N4C(=S)N(c5ccc(C#N)c(C(F)(F)F)c5F)C(=O)C4(C)C)cc3F)cc2F)C(C)(C)C)cc1` [Compound A70] the “eAUC0.5-2 h” value [1] was 1686 ± 938 ng·h/mL and the DC50 (AR) was 62.1 nM.

In the case of `Cc1ncsc1-c1ccc(CNC(=O)[C@@H]2C[C@@H](O)CN2C(=O)[C@@H](NC(=O)COCCOc2ccc(-c3ccc(N4C(=S)N(c5ccc(C#N)c(C(F)(F)F)c5F)C(=O)C4(C)C)cn3)cc2)C(C)(C)C)cc1` [Compound A71], the “eAUC0.5-2 h” value [1] is reported as 287 ± 135 ng·h/mL and the DC50 (AR) is reported as 62.1 nM.

For `Cc1ncsc1-c1ccc(CNC(=O)[C@@H]2C[C@@H](O)CN2C(=O)[C@@H](NC(=O)COCCCOc2ccc(-c3ccc(N4C(=S)N(c5ccc(C#N)c(C(F)(F)F)c5F)C(=O)C4(C)C)cn3)cc2F)C(C)(C)C)cc1` [Compound A72], the “eAUC0.5-2 h” value [1] was 240 ± 68 ng·h/mL and the DC50 (AR) was 35.1 nM.

With `Cc1ncsc1-c1ccc(CNC(=O)[C@@H]2C[C@@H](O)CN2C(=O)[C@@H](NC(=O)COCCCCCOc2ccc(-c3ccc(N4C(=S)N(c5ccc(C#N)c(C(F)(F)F)c5F)C(=O)C4(C)C)cn3)cc2)C(C)(C)C)cc1` [Compound A73] the “eAUC0.5-2 h” value [1] was 189 ± 108 ng·h/mL and the DC50 (AR) was 49.3 nM.

In the case of `Cc1ncsc1-c1ccc(CNC(=O)[C@@H]2C[C@@H](O)CN2C(=O)[C@@H](NC(=O)COCCCCOc2ccc(-c3ncc(N4C(=S)N(c5ccc(C#N)c(C(F)(F)F)c5F)C(=O)C4(C)C)cc3C(F)(F)F)cc2F)C(C)(C)C)cc1` [Compound A74], the “eAUC0.5-2 h” value [1] is reported as 746 ± 158 ng·h/mL and the DC50 (AR) is reported as 77.8 nM.

With `Cc1ncsc1-c1ccc(CNC(=O)[C@@H]2C[C@@H](O)CN2C(=O)[C@@H](NC(=O)COCCCCOc2c(F)cc(-c3ncc(N4C(=S)N(c5ccc(C#N)c(C(F)(F)F)c5F)C(=O)C4(C)C)cc3F)cc2F)C(C)(C)C)cc1` [Compound A77] the “eAUC0.5-2 h” value [1] was 1354 ± 205 ng·h/mL and the DC50 (AR) was 114 nM.

For `Cc1ncsc1-c1ccc(CNC(=O)[C@@H]2C[C@@H](O)CN2C(=O)[C@@H](NC(=O)COCCCCOc2ccc(-c3ncc(N4C(=S)N(c5ccc(C#N)c(C(F)(F)F)c5F)C(=O)C4(C)C)cc3F)cc2C#N)C(C)(C)C)cc1` [Compound A78], the “eAUC0.5-2 h” value [1] was 187 ± 66 ng·h/mL and the DC50 (AR) was 57.4 nM.

For `Cc1ncsc1-c1ccc(CNC(=O)[C@@H]2C[C@@H](O)CN2C(=O)[C@@H](NC(=O)COCCCCOc2c(F)cc(-c3ncc(N4C(=S)N(c5ccc(C#N)c(C(F)(F)F)c5F)C(=O)C4(C)C)cc3C(F)(F)F)cc2F)C(C)(C)C)cc1` [Compound A79], the “eAUC0.5-2 h” value [1] was 950 ± 114 ng·h/mL and the DC50 (AR) was 129 nM.

With `Cc1ncsc1-c1ccc(CNC(=O)[C@@H]2C[C@@H](O)CN2C(=O)[C@@H](NC(=O)COCCCCOc2ccc(-c3ccc(N4C(=S)N(c5ccc(C#N)c(C(F)(F)F)c5F)C(=O)C4(C)C)cn3)cc2Cl)C(C)(C)C)cc1` [Compound A83] the “eAUC0.5-2 h” value [1] was 574 ± 176 ng·h/mL and the DC50 (AR) was 87.8 nM.

In the case of `Cc1ncsc1-c1ccc(CNC(=O)[C@@H]2C[C@@H](O)CN2C(=O)[C@@H](NC(=O)COCCCCOc2ccc(-c3ccc(N4C(=S)N(c5ccc(C#N)c(C(F)(F)F)c5F)C(=O)C4(C)C)cn3)cc2C(F)(F)F)C(C)(C)C)cc1` [Compound A84], the “eAUC0.5-2 h” value [1] is reported as 774 ± 119 ng·h/mL and the DC50 (AR) is reported as 140 nM.

With `Cc1ncsc1-c1ccc(CNC(=O)[C@@H]2C[C@@H](O)CN2C(=O)[C@@H](NC(=O)COCCOCCOc2ccc(-c3ccc(N4C(=S)N(c5ccc(C#N)c(C(F)(F)F)c5F)C(=O)C4(C)C)cn3)cc2F)C(C)(C)C)cc1` [Compound A85] the “eAUC0.5-2 h” value [1] was 70 ± 23 ng·h/mL and the DC50 (AR) was 33 nM.

In the case of `Cc1ncsc1-c1ccc(CNC(=O)[C@@H]2C[C@@H](O)CN2C(=O)[C@@H](NC(=O)COCCCCCOc2ccc(-c3ncc(N4C(=S)N(c5ccc(C#N)c(C(F)(F)F)c5F)C(=O)C4(C)C)cc3F)cc2F)C(C)(C)C)cc1` [Compound A89], the “eAUC0.5-2 h” value [1] is reported as 501 ± 103.57 ng·h/mL and the DC50 (AR) is reported as 72 nM.

With `Cc1ncsc1-c1ccc(CNC(=O)[C@@H]2C[C@@H](O)CN2C(=O)[C@@H](NC(=O)COCCOCCOc2ccc(-c3ncc(N4C(=S)N(c5ccc(C#N)c(C(F)(F)F)c5F)C(=O)C4(C)C)cc3F)cc2F)C(C)(C)C)cc1` [Compound A90] the “eAUC0.5-2 h” value [1] was 96 ± 28.51 ng·h/mL and the DC50 (AR) was 36.4 nM.
